Measured values published in ChEMBL document CHEMBL4831516, “Development of Membrane-Active Honokiol/Magnolol Amphiphiles as Potent Antibacterial Agents against Methicillin-Resistant Staphylococcus aureus (MRSA)” (J Med Chem, 2021).

Columns and labels:
[1] = Selectivity index, HC50 for hemolytic activity in sheep RBC to MIC for antibacterial activity against Staphylococcus aureus ATCC29213; format: toxicity; details: sheep red blood cells (erythrocytes), read-out: Selectivity Index
Salmonella enterica [2] = experiment: Antibacterial activity against Salmonella enterica 349812 assessed as inhibition of visible growth incubated for 16 to 18 hrs by CLSI method; format: functional; details: time 16-18 hrs, read-out: MIC100
Micrococcus luteus = experiment: Antibacterial activity against Micrococcus luteus assessed as inhibition of visible growth incubated for 16 to 18 hrs by CLSI method; format: functional; details: time 16-18 hrs, read-out: MIC100
Staphylococcus aureus [3] = experiment: Antibacterial activity against methicillin-resistant Staphylococcus aureus clinical isolate M-18 assessed as inhibition of visible growth incubated for 16 to 18 hrs by CLSI method; format: functional; details: time 16-18 hrs, read-out: MIC100
Staphylococcus aureus [4] = experiment: Antibacterial activity against methicillin-resistant Staphylococcus aureus clinical isolate M-20 assessed as inhibition of visible growth incubated for 16 to 18 hrs by CLSI method; format: functional; details: time 16-18 hrs, read-out: MIC100
Staphylococcus aureus [5] = experiment: Antibacterial activity against Staphylococcus aureus ATCC29213 assessed as inhibition of visible growth incubated for 16 to 18 hrs by CLSI method; format: functional; details: time 16-18 hrs, read-out: MIC100
Enterococcus faecalis = experiment: Antibacterial activity against Enterococcus faecalis ATCC29212 assessed as inhibition of visible growth incubated for 16 to 18 hrs by CLSI method; format: functional; details: time 16-18 hrs, read-out: MIC100
Staphylococcus aureus [6] = experiment: Antibacterial activity against methicillin-resistant Staphylococcus aureus clinical isolate M-17 assessed as inhibition of visible growth incubated for 16 to 18 hrs by CLSI method; format: functional; details: time 16-18 hrs, read-out: MIC100
[7] = Hemolytic activity in sheep RBC assessed as hemolysis incubated for 1 hr; format: ADME, cell-based, Ovis aries, Erythrocyte; details: sheep red blood cells (erythrocytes)
Staphylococcus aureus [8] = experiment: Antibacterial activity against methicillin-resistant Staphylococcus aureus clinical isolate M-19 assessed as inhibition of visible growth incubated for 16 to 18 hrs by CLSI method; format: functional; details: time 16-18 hrs, read-out: MIC100
Escherichia coli = experiment: Antibacterial activity against Escherichia coli ATCC25922 assessed as inhibition of visible growth incubated for 16 to 18 hrs by CLSI method; format: functional; details: time 16-18 hrs, read-out: MIC100
[9] = system: Stenotrophomonas maltophilia; experiment: Antibacterial activity against Stenotrophomonas maltophilia assessed as inhibition of visible growth incubated for 16 to 18 hrs by CLSI method; format: functional; details: time 16-18 hrs, read-out: MIC100
Staphylococcus aureus [10] = experiment: Antibacterial activity against methicillin-resistant Staphylococcus aureus clinical isolate M-12 assessed as inhibition of visible growth incubated for 16 to 18 hrs by CLSI method; format: functional; details: time 16-18 hrs, read-out: MIC100
Staphylococcus aureus [11] = experiment: Antibacterial activity against methicillin-resistant Staphylococcus aureus clinical isolate M-11 assessed as inhibition of visible growth incubated for 16 to 18 hrs by CLSI method; format: functional; details: time 16-18 hrs, read-out: MIC100
Salmonella enterica [12] = experiment: Antibacterial activity against Salmonella enterica 8389 assessed as inhibition of visible growth incubated for 16 to 18 hrs by CLSI method; format: functional; details: time 16-18 hrs, read-out: MIC100
Bacillus subtilis = experiment: Antibacterial activity against Bacillus subtilis assessed as inhibition of visible growth incubated for 16 to 18 hrs by CLSI method; format: functional; details: time 16-18 hrs, read-out: MIC100
Staphylococcus aureus [13] = experiment: Antibacterial activity against methicillin-resistant Staphylococcus aureus clinical isolate M-16 assessed as inhibition of visible growth incubated for 16 to 18 hrs by CLSI method; format: functional; details: time 16-18 hrs, read-out: MIC100
Staphylococcus aureus [14] = experiment: Antibacterial activity against methicillin-resistant Staphylococcus aureus clinical isolate M-13 assessed as inhibition of visible growth incubated for 16 to 18 hrs by CLSI method; format: functional; details: time 16-18 hrs, read-out: MIC100
Staphylococcus aureus [15] = experiment: Antibacterial activity against methicillin-resistant Staphylococcus aureus clinical isolate M-14 assessed as inhibition of visible growth incubated for 16 to 18 hrs by CLSI method; format: functional; details: time 16-18 hrs, read-out: MIC100
Staphylococcus aureus [16] = experiment: Antibacterial activity against methicillin-resistant Staphylococcus aureus clinical isolate M-15 assessed as inhibition of visible growth incubated for 16 to 18 hrs by CLSI method; format: functional; details: time 16-18 hrs, read-out: MIC100

| SMILES | selectivity ratio [1] | MIC (Salmonella enterica [2]) [µg/mL] | MIC (Micrococcus luteus) [µg/mL] | MIC (Staphylococcus aureus [3]) [µg/mL] | MIC (Staphylococcus aureus [4]) [µg/mL] | MIC (Staphylococcus aureus [5]) [µg/mL] | MIC (Enterococcus faecalis) [µg/mL] | MIC (Staphylococcus aureus [6]) [µg/mL] | HC50 at 1 h [7] [µg/mL] | MIC (Staphylococcus aureus [8]) [µg/mL] | MIC (Escherichia coli) [µg/mL] | MIC [9] [µg/mL] | MIC (Staphylococcus aureus [10]) [µg/mL] | MIC (Staphylococcus aureus [11]) [µg/mL] | MIC (Salmonella enterica [12]) [µg/mL] | MIC (Bacillus subtilis) [µg/mL] | MIC (Staphylococcus aureus [13]) [µg/mL] | MIC (Staphylococcus aureus [14]) [µg/mL] | MIC (Staphylococcus aureus [15]) [µg/mL] | MIC (Staphylococcus aureus [16]) [µg/mL] |
| --- | --- | --- | --- | --- | --- | --- | --- | --- | --- | --- | --- | --- | --- | --- | --- | --- | --- | --- | --- | --- |
| C=CCc1ccc(OCC[N+](C)(C)CC(=O)N(CCCC)CCCC)c(-c2ccc(OCC[N+](C)(C)CC(=O)N(CCCC)CCCC)c(CC=C)c2)c1.[Br-].[Br-] | > 320 | 32 | 4 | 8 | 8 | 4 | 2 | 2 | > 1280 | 8 | 16 | 32 | 4 | 4 | 32 | 4 | 2 | 4 | 4 | 2 |
| C=CCc1ccc(OCCCC[N+](C)(C)CC(=O)NCCCC)c(-c2ccc(OCCCC[N+](C)(C)CC(=O)NCCCC)c(CC=C)c2)c1.[Br-].[Br-] | 266 | 8 | 4 | 4 | 2 | 2 | 1 | 4 | 531 | 4 | 8 | 8 | 2 | 2 | 16 | 2 | 4 | 2 | 2 | 4 |
| C=CCc1ccc(O)c(-c2cc(CC=C)ccc2OCCCC[N+](C)(C)CC(=O)N(CCCC)CCCC)c1.[Br-] | 356 | 32 | 2 | 8 | 8 | 2 | 4 | 8 | 712 | 8 | 8 | 32 | 16 | 16 | 64 | 1 | 8 | 8 | 8 | 8 |
| C=CCc1ccc(OCC[N+](C)(C)CC(=O)NCCCC)c(-c2ccc(OCC[N+](C)(C)CC(=O)NCCCC)c(CC=C)c2)c1.[Br-].[Br-] | 208 | 64 | 4 | 4 | 8 | 4 | 8 | 8 | 832 | 4 | 64 | 32 | 4 | 4 | 32 | 2 | 8 | 4 | 4 | 8 |
| C=CCc1ccc(O)c(-c2cc(CC=C)ccc2OCC[N+](C)(C)CC(=O)NCCCCCC)c1.[Br-] | 181 | 64 | 4 | 8 | 4 | 4 | 16 | 8 | 723 | 8 | 32 | 64 | 8 | 8 | 64 | 4 | 4 | 8 | 4 | 4 |
| C=CCc1ccc(O)c(-c2cc(CC=C)ccc2OCC[N+](C)(C)CC(=O)N(CCCC)CCCC)c1.[Br-] | 393 | 16 | 2 | 2 | 2 | 2 | 4 | 2 | 786 | 2 | 8 | 16 | 4 | 4 | 16 | 1 | 2 | 4 | 4 | 4 |
